As usually defined, the Ki is the equilibrium dissociation constant of an inhibitor or competing ligand from its target. Read a low Ki as tighter binding.

In experiment [1] the target is T1, human thrombin (Homo sapiens, UniProt P00734).
T1 construct: conversion of prothrombin to thrombin, the final enzyme in the coagulation cascade; purchased Behring LOT.-No. 881001 (a lot number; no catalogue number given)
Nature of the experiment: Chromogenic assay for thrombin inhibition. Particulars: chromogenic substrate S-2366 200 μM; Ki from IC50 by Cheng Prusoff formula, mean of duplicates. Format: biochemical. Here is the method:
(§1) The ability of the compounds of the formulae I or Ia to inhibit thrombin or factor Xa or other enzymes like factor VIIa, plasmin, or trypsin can be assessed by determining the concentration of the compound of the formulae I or Ia that inhibits enzyme activity by 50%, i.e. the 1050 value, which was related to the inhibition constant Ki. Purified enzymes were used in chromogenic assays. The concentration of inhibitor that causes a 50% decrease in the rate of substrate hydrolysis was determined by linear regression after plotting the relative rates of hydrolysis (compared to the uninhibited control) versus the log of the concentration of the compound of formulae I or Ia. For calculating the inhibition constant Ki, the 1050 value was corrected for competition with substrate using the formula Ki=IC50/{1+(substrate concentration/Km)} wherein Km is the Michaelis-Menten constant (Chen and Prusoff, Biochem. Pharmacol. 22 (1973) 3099-3108). Measurement of F Xa and Thrombin Inhibition:
(§2) The claimed substances were tested for F Xa and thrombin inhibition with a chromogenic assay. 8 μl DMSO solution of the compound, 72 μL assay buffer (50 mM TRIS, 150 mM NaCl, 0.1% BSA, pH 7.8) and 20 μL enzyme (human coagulation factor Xa: Haemochrom Diag. Cat. Nr. HFXa, final concentration […]; human thrombin Behring: LOT.-No. 881001) were mixed and incubated for 15 minutes at room temperature in a 96 well microtiter plate. The enzyme reaction was started with 100 μL substrate (F Xa: S-2765, Chromogenix/Haemochrom Cat. Nr. 41249; thrombin: S-2366, Chromogenix/Haemochrom Cat. Nr. 41222 both in a final concentration of 200 μM). The time course of the reaction was monitored at 405 nm in a microtiter plate reader (SpectraMax plus 384; Molecular Devices Inc.) for 15 minutes.
(§3) The Ki was calculated from the mean of duplicates from a dilution series of the compound by the reader according to the Cheng Prusoff formula Ki=IC50/(1+(S/Km).
(§4) The results (inhibition constants Ki Thrombin and FXa in mikro M [μM]) for inhibition of thrombin and factor Xa are shown in Table 1.

The target of experiment [2] is T2, human coagulation factor Xa (Homo sapiens, UniProt P00742).
T2 construct: purchased Haemochrom Diag; HFXa
Nature of the experiment: Chromogenic assay for F Xa inhibition. The format is biochemical. As to conditions: chromogenic substrate S-2765 200 μM; Ki from IC50 by Cheng Prusoff formula, mean of duplicates. As for the experimental part: as §1, §2, §3, §4

T2 sequence (P00742 235-488 limits assumed): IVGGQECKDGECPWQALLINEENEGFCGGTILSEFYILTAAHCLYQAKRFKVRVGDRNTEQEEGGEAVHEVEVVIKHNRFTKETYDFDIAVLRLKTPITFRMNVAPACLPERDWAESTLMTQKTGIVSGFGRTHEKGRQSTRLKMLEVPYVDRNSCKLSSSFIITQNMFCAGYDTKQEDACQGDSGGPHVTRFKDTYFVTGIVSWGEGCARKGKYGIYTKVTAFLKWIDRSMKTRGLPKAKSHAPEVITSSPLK
T2 sequence (P00742 41-179 limits assumed): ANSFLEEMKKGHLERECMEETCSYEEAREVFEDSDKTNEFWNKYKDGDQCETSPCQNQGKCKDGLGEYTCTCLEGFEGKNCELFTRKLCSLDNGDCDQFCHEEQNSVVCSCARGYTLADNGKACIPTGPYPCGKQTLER

Regarding `CCc1c(N2CCOCC2=O)cccc1S(=O)(=O)N[C@@H](Cc1cc(-c2ccc(Cl)s2)on1)C(=O)N1CCCCCC1` [Example 1, N-{(S)-2-Azepan-1-yl-1-[5-(5-chloro-thiophen-2-yl)-isoxazol-3-ylmethyl]-2-oxo-ethyl}-2-ethyl-3-(3-oxo-morpholin-4-yl)-benzenesulfonamide], the values for the Ki in experiment [1] and in experiment [2] were 0.35 nM and 13 nM, respectively.
The corresponding values for `O=C([C@H](Cc1cc(-c2ccc(Cl)s2)on1)NS(=O)(=O)c1cccc(N2CCOCC2=O)c1Cl)N1CCCCCC1` [Example 2, N-{(S)-2-Azepan-1-yl-1-[5-(5-chloro-thiophen-2-yl)-isoxazol-3-ylmethyl]-2-oxo-ethyl}-2-chloro-3-(3-oxo-morpholin-4-yl)-benzenesulfonamide] are 7 nM and 83 nM.
On the same counts, the results for `COc1c(N2CCCCC2=O)cc(F)cc1S(=O)(=O)N[C@@H](Cc1cc(-c2ccc(Cl)s2)on1)C(=O)NCC1CC1` [Example 3, (S)-3-[5-(5-Chloro-thiophen-2-yl)-isoxazol-3-yl]-N-cyclopropylmethyl-2-[5-fluoro-2-methoxy-3-(2-oxo-piperidin-1-yl)-benzenesulfonylamino]-propionamide] are 268 nM and 904 nM.
The corresponding values for `COc1c(N2CCCCC2=O)cc(F)cc1S(=O)(=O)N[C@@H](Cc1cc(-c2ccc(Cl)s2)on1)C(=O)N1CCN(C2CC2)CC1` [Example 4, N—[(S)-1-[5-(5-Chloro-thiophen-2-yl)-isoxazol-3-ylmethyl]-2-(4-cyclopropyl-piperazin-1-yl)-2-oxo-ethyl]-5-fluoro-2-methoxy-3-(2-oxo-piperidin-1-yl)-benzenesulfonamide trifluoro acetate] are 29 nM and 6 nM.
Take `O=C([C@H](Cc1cc(-c2ccc(Cl)s2)on1)NS(=O)(=O)c1cccc(N2CCCCC2=O)c1OC(F)F)N1CCN(C2CC2)CC1` [Example 5, N—[(S)-1-[5-(5-Chloro-thiophen-2-yl)-isoxazol-3-ylmethyl]-2-(4-cyclopropyl-piperazin-1-yl)-2-oxo-ethyl]-2-difluoromethoxy-3-(2-oxo-piperidin-1-yl)-benzenesulfonamide trifluoro acetate]: the Ki turned out to be 94 nM in experiment [1] and 33 nM in experiment [2].
The corresponding values for `Cc1c(N2CCCC2=O)cccc1S(=O)(=O)N[C@@H](Cc1cc(-c2ccc(Cl)s2)on1)C(=O)N1CCN(CC(F)(F)F)CC1` [Example 6, N-{(S)-1-[5-(5-Chloro-thiophen-2-yl)-isoxazol-3-ylmethyl]-2-oxo-2-[4-(2,2,2-trifluoro-ethyl)-piperazin-1-yl]-ethyl}-2-methyl-3-(2-oxo-pyrrolidin-1-yl)-benzenesulfonamide trifluoro acetate] are 14 nM and 0.72 nM.
On the same counts, the results for `Cc1c(N2CCCC2=O)cccc1S(=O)(=O)N[C@@H](Cc1cc(-c2ccc(Cl)s2)on1)C(=O)N1CCNC(C(F)(F)F)C1` (stereo partly drawn) [Example 7, N—[(S)-1-[5-(5-Chloro-thiophen-2-yl)-isoxazol-3-ylmethyl]-2-oxo-2-(3-trifluoromethyl-piperazin-1-yl)-ethyl]-2-methyl-3-(2-oxo-pyrrolidin-1-yl)-benzenesulfonamide trifluoro acetate] are 0.79 nM and 0.44 nM.

The values above are taken from patent US8835653B2, “Chlorothiophene-isoxazoles as inhibitors of coagulation factors Xa and thrombin” (Sanofi, priority 2008, dated 2014).
